Assay results taken from US10441536B2, “Micronized colistimethane sodium pharmaceutical compositions” (Forest Laboratories Holdings Limited, priority 2013, dated 2019).

Assays:
[1] = Water content (Karl-Fisher) of colistimethate sodium powder and gelatin capsules in various storage conditions; type: physicochemical; design: unit not given here; conditions: n = 3
Protocol: Aliquots of colistimethate sodium encapsulated in gelatin capsules were stored in relative humidity ranging from about 20% RH to about 80% RH at ambient temperature conditions. Encapsulated colistimethate sodium was tested for moisture content and piercing performance at several time points. For example, the capsules were tested at 23° C. at 30% RH, 23° C. at 40% RH, 23° C. at 48% RH, 23° C. at 75% RH at different time points such as 1, 2, 4, and 24 hrs. Storage conditions were generated using qualified stability chambers set at the target temperature 23° C.±2° C. and the set relative humidity ±5% RH. Ambient laboratory conditions were determined to be at about 23° C.±2° C., 48% RH. Ambient conditions were verified using calibrated NIST thermo-Hygrometers. Average moisture content of colistimethate sodium as well as the moisture content of gelatin capsules was determined using Karl-Fisher determination.

[2] = type: in vivo, patients
Protocol: In one clinical trial, the absorption of the powdered colistimethate sodium into the airways of the lungs was measured (specific airway conductance). […] This is a very high uptake, and more than would be expected from a powdered drug. […] In a second trial, patients were given a premedication dose of 200 micrograms of salbutamol. […] In an alternative medication regime, the salbutamol can be mixed into the same capsule as the colistin sulphomethate sodium.

[3] = tested on: gram negative microbial organisms; assay: Synergy of activity of the mixture of components; type: cell-based
Text: Colistimethate sodium is a negatively charged molecular ion with positively charged sodium counter ions. […] There are five sulphomethate groups (CH2—OS02^−). U.S. Pat. No. 5,767,068 refers to variable groups Rx and R2; Rx is identified as 6-methyloctanoyl or 6-methylheptanoyl, and R2 as sec-butyl, isobutyl or isopropyl.

[4] = in vivo; cited from earlier work

## colistin sulphomethate sodium [colistimethate sodium]
[1]; 23° C./30% RH, 0 hr
  Water Content (KF): 5.44
[1]; 23° C./30% RH, 1 hr
  Water Content (KF): 5.28
[1]; 23° C./30% RH, 2 hr
  Water Content (KF): 5.85
[1]; 23° C./30% RH, 4 hr
  Water Content (KF): 5.94
[1]; 23° C./30% RH, 24 hr
  Water Content (KF): 6.54
[1]; 23° C./40% RH, 0 hr
  Water Content (KF): 5.44
[1]; 23° C./40% RH, 1 hr
  Water Content (KF): 5.96
[1]; 23° C./40% RH, 2 hr
  Water Content (KF): 5.81
[1]; 23° C./40% RH, 4 hr
  Water Content (KF): 6.51
[1]; 23° C./40% RH, 9 hr
  Water Content (KF): 6.50
[1]; 23° C./40% RH, 24 hr
  Water Content (KF): 9.54
[1]; 23° C./48% RH, 0 hr
  Water Content (KF): 5.44
[1]; 23° C./48% RH, 1 hr
  Water Content (KF): 5.68
[1]; 23° C./48% RH, 2 hr
  Water Content (KF): 6.39
[1]; 23° C./48% RH, 4 hr
  Water Content (KF): 6.64
[1]; 23° C./48% RH, 24 hr
  Water Content (KF): 14.49
[1]; 23° C./75% RH, 0 hr
  Water Content (KF): 5.44
[1]; 23° C./75% RH, 1 hr
  Water Content (KF): 7.04
[1]; 23° C./75% RH, 2 hr
  Water Content (KF): 6.96
[1]; 23° C./75% RH, 4 hr
  Water Content (KF): 10.74
[2]; human, in vivo
  irritation of the lungs: does not cause irritation
  specific airway conductance, whole body plethysmography, compared with traditional nebulised colistimethate sodium: did not show any noticeable difference
[3]
  activity of the mixture of components against gram negative microbial organisms: synergy of activity
[4]
  absorption into the bloodstream: poorly absorbed

## CC(C)(C)NCC(O)c1ccc(O)c(CO)c1 (stereo not shown) [salbutamol]
[2]; premedication dose of 200 micrograms, second trial
  airway conductance: appeared to improve airway conductance
